One assay addresses T1, hTRPA1 (Homo sapiens, UniProt O75762).
T1 construct: gene TRPA1
The experiment in a line: FLIPR calcium assay (agonism) in HEK293 cells with inducible hTRPA1; non-expressing HEK293 control. Type of assay: cell-based.

The next assay has as its target T2, rTRPA1 (Rattus norvegicus, UniProt Q6RI86).
T2 construct: gene Trpa1
The assay is described as follows: FLIPR calcium assay in HEK293 cells with inducible rTRPA1 ([…] of maximal AITC response at […]; desensitization to AITC). Type of assay: cell-based.

In general, EC50 refers to the concentration giving half of the maximal effect. A word on the Emax: it is the greatest response seen or fitted, relative to the assay's reference.

T1 sequence (O75762 whole entry): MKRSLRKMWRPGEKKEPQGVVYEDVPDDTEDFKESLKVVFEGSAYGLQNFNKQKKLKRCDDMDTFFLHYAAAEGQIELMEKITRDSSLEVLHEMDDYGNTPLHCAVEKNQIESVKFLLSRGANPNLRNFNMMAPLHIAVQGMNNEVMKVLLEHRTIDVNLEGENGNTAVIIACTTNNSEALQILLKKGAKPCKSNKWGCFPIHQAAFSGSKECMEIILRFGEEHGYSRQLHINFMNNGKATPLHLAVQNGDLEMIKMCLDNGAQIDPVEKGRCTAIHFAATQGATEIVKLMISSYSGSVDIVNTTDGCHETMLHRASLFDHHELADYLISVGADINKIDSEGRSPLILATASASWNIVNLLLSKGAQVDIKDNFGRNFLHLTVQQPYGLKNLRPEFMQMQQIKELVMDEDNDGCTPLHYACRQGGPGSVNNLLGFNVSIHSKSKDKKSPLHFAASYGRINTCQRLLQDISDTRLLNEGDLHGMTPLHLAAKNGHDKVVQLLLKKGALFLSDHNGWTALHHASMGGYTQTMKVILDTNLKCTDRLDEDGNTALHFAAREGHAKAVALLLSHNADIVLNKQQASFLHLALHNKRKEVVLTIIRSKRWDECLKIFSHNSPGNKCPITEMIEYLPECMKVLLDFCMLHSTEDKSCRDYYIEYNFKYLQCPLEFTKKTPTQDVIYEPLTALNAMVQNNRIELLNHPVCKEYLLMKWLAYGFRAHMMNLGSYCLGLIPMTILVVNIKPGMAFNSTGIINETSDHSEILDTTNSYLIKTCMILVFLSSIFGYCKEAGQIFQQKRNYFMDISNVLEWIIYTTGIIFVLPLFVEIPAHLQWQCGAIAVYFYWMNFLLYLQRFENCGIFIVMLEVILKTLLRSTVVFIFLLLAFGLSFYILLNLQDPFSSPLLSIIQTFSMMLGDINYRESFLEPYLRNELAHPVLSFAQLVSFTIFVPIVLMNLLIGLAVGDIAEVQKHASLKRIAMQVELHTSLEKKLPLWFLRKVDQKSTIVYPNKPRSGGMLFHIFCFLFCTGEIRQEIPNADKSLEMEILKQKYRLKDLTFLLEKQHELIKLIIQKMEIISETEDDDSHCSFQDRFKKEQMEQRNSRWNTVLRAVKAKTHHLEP
T2 sequence (Q6RI86 whole entry): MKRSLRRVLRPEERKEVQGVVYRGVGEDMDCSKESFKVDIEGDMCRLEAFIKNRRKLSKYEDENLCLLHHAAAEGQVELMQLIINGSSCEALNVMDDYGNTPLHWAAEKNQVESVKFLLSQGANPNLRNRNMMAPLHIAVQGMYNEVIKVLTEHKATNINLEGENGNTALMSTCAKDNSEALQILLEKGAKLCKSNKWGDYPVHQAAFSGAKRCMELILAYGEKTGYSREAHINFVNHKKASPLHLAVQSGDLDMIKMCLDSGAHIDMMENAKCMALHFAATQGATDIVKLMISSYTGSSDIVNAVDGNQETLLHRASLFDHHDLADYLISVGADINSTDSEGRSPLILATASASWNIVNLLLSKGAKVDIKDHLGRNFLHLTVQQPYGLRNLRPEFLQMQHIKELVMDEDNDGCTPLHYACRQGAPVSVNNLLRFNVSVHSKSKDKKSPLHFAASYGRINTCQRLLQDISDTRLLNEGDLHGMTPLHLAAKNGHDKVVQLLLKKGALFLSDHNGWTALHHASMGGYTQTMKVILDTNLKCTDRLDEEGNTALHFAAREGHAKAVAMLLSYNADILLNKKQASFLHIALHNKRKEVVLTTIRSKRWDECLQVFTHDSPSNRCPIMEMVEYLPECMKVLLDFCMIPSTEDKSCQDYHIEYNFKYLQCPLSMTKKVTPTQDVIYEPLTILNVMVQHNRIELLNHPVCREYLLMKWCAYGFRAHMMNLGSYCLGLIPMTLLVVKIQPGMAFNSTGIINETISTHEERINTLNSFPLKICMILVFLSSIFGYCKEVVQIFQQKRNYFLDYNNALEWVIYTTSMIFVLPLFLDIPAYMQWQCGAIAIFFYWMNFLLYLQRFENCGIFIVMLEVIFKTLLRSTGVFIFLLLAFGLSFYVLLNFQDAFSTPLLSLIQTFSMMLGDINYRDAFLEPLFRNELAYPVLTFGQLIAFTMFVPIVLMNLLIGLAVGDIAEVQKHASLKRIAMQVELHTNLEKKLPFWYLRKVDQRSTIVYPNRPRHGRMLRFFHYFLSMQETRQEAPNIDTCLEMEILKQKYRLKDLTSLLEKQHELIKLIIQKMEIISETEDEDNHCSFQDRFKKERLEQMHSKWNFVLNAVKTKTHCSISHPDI

On to `Oc1cc(O)cc(/C=C/c2ccccc2)c1` [Pinosylvin], for which, on hTRPA1, the EC50 was found to be 12 ± 1.1 µM. In the case of `Oc1ccc(/C=C/c2cc(O)cc(O)c2)cc1` [Resveratrol], the Emax at 100 µM on rTRPA1 was 35%. In addition, the EC50 at hTRPA1 turned out to be 3.2 ± 0.2 µM.

With `COc1cc(O)cc(/C=C/c2ccccc2)c1` [pinosylvin monomethyl ether], at hTRPA1, the EC50 was found to be 11.2 ± 0.8 µM.

Values taken from PMC11793850, “Insights into Molecular Interactions and Biological Effect of Natural Stilbenoids at the TRPA1 Ion Channel” (Chemmedchem, 2024).
